Data taken from patent US20120316249A1, “LYCOPENE FOR THE TREATMENT FOR METABOLIC DYSFUNCTION” (Cammedica limited, priority 2006, published 2012).
“And” between values parts separate entries of the source, which are not always exact repeats. Equal values may be shown once.

Test: Pilot clinical trial of Lipitor-Liprimar: serum lipids in human volunteers
Assay type: in vivo
Set-up: TG / CH-HDL / CH, mean / TG, mean / CH-LDL, mean / CH-HDL, mean: unit not given here
Method: Ten volunteers, 5 males and 5 females, aged 45-55 years old, were selected for this pilot clinical trial. 40 mg of Lipitor-Liprimar was given orally, with food, to each patient daily for two months.
Serum samples were collected from the blood of the patients before the treatment and after two months of treatment.

[1] = Lipitor 40 mg daily, two months
[2] = individual patients, Lipitor 40 mg daily, orally, after 2 months of treatment
[3] = mean of 10 patients, Lipitor 40 mg daily, orally, after 2 months of treatment

## CC(C)c1c(C(=O)Nc2ccccc2)c(-c2ccccc2)c(-c2ccc(F)cc2)n1CC[C@@H](O)C[C@@H](O)CC(=O)O [Lipitor, Atorvastatin]
[1]
  total cholesterol (CH) reduction: 17%
  triglyceride (TG) reduction: 22%
Lipitor-Liprimar 40 mg daily, two months
  CH-LDL reduction: 35%
[2]
  CH: 200 mg/dL (2×) and 140 mg/dL and 176 mg/dL and 188 mg/dL and 197 mg/dL and 170 mg/dL and 184 mg/dL and 209 mg/dL and 154 mg/dL
  CH-HDL: 38 and 42 (3×) and 47 (2×) and 39 and 43 (2×) and 49
  CH-LDL: 120 mg/dL (2×) and 145 mg/dL and 110 mg/dL (2×) and 146 mg/dL and 140 mg/dL and 100 mg/dL and 130 mg/dL (2×)
  TG: 120 and 136 and 99 and 98 and 87 and 90 and 133 and 105 and 172 and 96
[3]
  CH, mean: 182
  CH-HDL, mean: 43
  CH-LDL, mean: 100
  TG, mean: 113
